# Literature values as cited in US11332491B2, “E-selectin antagonist compounds, compositions, and methods of use” (GLYCOMIMETICS, INC., priority 2011, dated 2022).
# System: human AML engrafted in NODscid IL2Rgc-/- mice
# Settings: ASH 2011 abstracts
compound,measurement,value
c1cc(CN2CCCNCCNCCCNCC2)ccc1CN1CCCNCCNCCCNCC1 [plerixafor],mobilization of human AML,approximately 2 fold
